How the values were obtained:
Aldose reductase = biological target: T1, Aldose reductase (Sus scrofa, UniProt P80276); experiment: Aldose Reductase Inhibition; type: biochemical; conditions: porcine lens aldose reductase; DL-glyceraldehyde 3 mM, NADPH 0.1 mM, pH 6.2, 37° C.
T1 construct: Aldose reductase samples were prepared from porcine lens; from tissue; host or cells: porcine lens
Protocol: Aldose reductase samples were prepared from porcine lens according the method by S. Hayman et al., (Journal of Biological Chemistry, 240, p. 877-882 (1965)). In brief, lens of porcine eyes were frozen (-80° C.) until employed. These lenses were homogenized with distilled water and then centrifuged at 10,000×g for 15 minutes. The supernatant was fractionated with 0 to 40% ammonium sulfate and centrifuged at 10,000×g for 10 minutes. The resultant supernatant was dialyzed overnight against 0.05M sodium chloride. The dialyzed solution was used as an aldose reductase sample. (Assay of Enzymatic Activity) Aldose reductase activity was assayed according to the aforementioned method by S. Hayman et al. In brief, to 200 μl of 40 mM phosphate buffer (pH 6.2) containing lithium sulfate, 0.4M (final concentration); NADPH (reduced nicotinamide adenine dinucleotide phosphate), 0.1 mM (final concentration); and DL-glyceraldehyde as a substrate, 3 mM (final concentration) was added 25 μl of the aldose reductase solution obtained by the aforementioned method and 25 μl of 1% DMSO solutions containing a sample inhibitor compound with different concentrations. The mixtures were incubated at 37° C. for 2 minutes for reaction and changes in the absorbance at 340 nm were read using an auto-analyzer (Hitachi Corporation, Model 7070, Japan). The change in the absorbance of a mixed solution including 1% DMSO instead of sample compounds was expresses as 100%. […] IC50 (M) means the concentration of the compounds, required for 50% inhibition of aldose reductase activity.

[1] = system: sorbitol accumulation in tissues (sciatic nerve, lens) of experimental diabetic rats; experiment: Inhibitory Effect on Sorbitol Accumulation in the Tissues of Experimental Diabetic Rats (Prophylactic effect); type: in vivo, Sprague-Dawley rats; conditions: control = 100%, ** P < 0.01 (Tukey); for Sorbitol Accumulation, Nerve: sciatic nerve
Protocol: 2) Inhibitory Effect on Sorbitol Accumulation in the Tissues of Experimental Diabetic Rats (Prophylactic effect)
Sprague-Dawley rats (male, 6-week-old, 5-6 rats/group), fasted for 18 hours, were made diabetic by a single intravenous (tail vein) injection of 60 mg/kg body weight of streptozotocin (Sigma). Four, eight and twenty four hours after the injection of streptozotocin, respectively, a sample compound suspended in 0.5% carboxymethyl cellulose was administered orally to the rats at a dose of 10 or 30 mg/kg. The rats were fed with diet and water ad libitum during the experiment. Three hours after the final administration, the sorbitol contents in the tissues (sciatic nerve, lens) was assayed enzymatically using SDH (sorbitol dehydrogenase) and NAD (β-nicotinamide adenine dinucleotide) according to the method by H. U. Bergmeyer et al. (Methods of Enzymatic Analysis, 3, p. 1323-1330 (1974)). The sorbitol contents in control groups to which 0.5% carboxymethyl cellulose was administered instead of sample compounds is expressed as 100%.

[2] = system: sorbitol accumulation in tissues (sciatic nerve, lens) of experimental diabetic rats; experiment: Inhibitory Effect on Sorbitol Accumulation in the Tissues of Experimental Diabetic Rats (Therapeutic Effect); type: in vivo, Sprague-Dawley rats; conditions: 5 days, from 7 days after streptozotocin, control = 100%, ** P < 0.01 (Tukey); for Sorbitol Accumulation, Nerve: sciatic nerve
Protocol: 4) Inhibitory Effect on Sorbitol Accumulation in the Tissues of Experimental Diabetic Rats (Therapeutic Effect)
Sprague-Dawley rats (male, 6-week-old, 5 to 6 rats/group), fasted for 18 hours, were made diabetic by injecting streptozotocin (Sigma) at a dose of 60 mg/kg body weight into the tail vein thereof. From 7 days after the streptozotocin injection, a sample compound suspended in 0.5% carboxymethyl cellulose was administered orally to the rats at a dose between 1 and 10 mg/kg once daily for 5 consecutive days. The rats were fed with diet and water ad libitum during the experiment. Three hours after the final administration, the sorbitol contents in the tissues (sciatic nerve, lens) was assayed enzymatically using SDH (sorbitol dehydrogenase) and NAD (β-nicotinamide adenine dinucleotide) according to the method by H. U. Bergmeyer et al. (Methods of Enzymatic Analysis, 3, p. 1323-1330 (1974)). The sorbitol contents in control groups to which 0.5% carboxymethyl cellulose was administered instead of sample compounds is expressed as 100%.

Normal ICR mice = experiment: Safety Study; type: in vivo; conditions: 1000 mg/kg oral, single dose; observed 7 days; male ICR mice, 5/group
Protocol: The safety of the compounds of the present invention was confirmed according to the following experimental procedure.
Normal ICR mice (male, 7-week-old, 5 mice/group), fasted for 18 hours, received orally the compound each of Examples 1-ii), 5-ii), 19-ii), 21, 22-ii) and 23-ii) suspended in 0.5% carboxymethyl cellulose at a dose of 1000 mg/kg. Control groups received only 0.5% carboxymethyl cellulose orally. […] The mice were fed with diet and water ad libitum during the experiment.

[3] = 10 mg/kg oral, 4, 8 and 24 h after streptozotocin
[4] = 30 mg/kg oral, 4, 8 and 24 h after streptozotocin

Compound: O=C(O)CN(C(=S)CCc1nc2c(F)c(F)cc(F)c2s1)c1ccccc1 [Example 32-ii), N-[3-(4,5,7-trifluorobenzothiazol-2-yl)-1-thioxopropionyl]-N-phenylglycine]
- IC50 (Aldose reductase): 8.4 nM

Compound: O=C(O)Cc1ccccc1Cc1nc2c(F)c(F)cc(F)c2s1 [Example 20-ii), 2-[(4,5,7-trifluorobenzothiazol-2-yl)methyl]phenylacetic acid]
- Sorbitol Accumulation, Lens [1, 3]: 63%
- Sorbitol Accumulation, Nerve [1, 3]: 15%
- IC50 (Aldose reductase): 19 nM

Compound: O=C(O)Cc1cccc(Cc2nc3c(F)c(F)cc(F)c3s2)c1 [Example 1-ii), 3-[(4,5,7-trifluorobenzothiazol-2-yl)methyl]phenylacetic acid]
- Sorbitol Accumulation, Lens ([2]; 10 mg/kg oral once daily): 68%
- Sorbitol Accumulation, Nerve ([2]; 10 mg/kg oral once daily): 2%
- Sorbitol Accumulation, Lens [1, 4]: 4%
- Sorbitol Accumulation, Nerve [1, 4]: 0%
- IC50 (Aldose reductase): 6.6 nM

Compound: O=C(O)CN(Cc1ccccc1)C(=S)CCc1nc2c(F)c(F)cc(F)c2s1 [Example 8-ii), N-benzyl-N-[3-(4,5,7-trifluorobenzothiazol-2-yl)-1-thioxopropyl]glycine]
- IC50 (Aldose reductase): 23 nM

Compound: CN(CC(=O)O)C(=O)CCc1nc2c(F)c(F)cc(F)c2s1 [Example 3-iii), N-[3-(4,5,7-trifluorobenzothiazol-2-yl)propionyl]-N-methylglycine]
- IC50 (Aldose reductase): 13 nM

Compound: O=C(O)Cc1cccc(Cc2nc3c(F)c(F)ccc3s2)c1 [Example 21, 3-[(4,5-difluorobenzothiazol-2-yl)methyl]phenylacetic acid]
- Sorbitol Accumulation, Lens [1, 3]: 40%
- Sorbitol Accumulation, Nerve [1, 3]: 0%
- IC50 (Aldose reductase): 6.7 nM

Compound: O=C(O)CCCCSc1nc2c(F)c(F)cc(F)c2s1 [Example 15-ii), 5-(4,5,7-trifluorobenzothiazol-2-ylthio)pentanoic acid]
- IC50 (Aldose reductase): 14 nM

Compound: O=C(O)Cc1cccc(Cc2nc3c(Cl)c(Cl)ccc3s2)c1 [Example 19-ii), 3-[(4,5-dichlorobenzothiazol-2-yl)methyl]phenylacetic acid]
- IC50 (Aldose reductase): 12 nM

Compound: O=C(O)CN(Cc1ccccc1)C(=O)CCc1nc2c(F)c(F)cc(F)c2s1 [Example 5-ii), N-benzyl-N-[3-(4,5,7-trifluorobenzothiazol-2-yl)propionyl]glycine]
- IC50 (Aldose reductase): 9.7 nM

Compound: O=C(O)Cc1cccc(Cc2nc3c(F)c(F)cc(F)c3s2)c1Cl [Example 25-ii), 3-[(4,5,7-trifluorobenzothiazol-2-yl)methyl]-2-chlorophenylacetic acid]
- Sorbitol Accumulation, Lens ([2]; 1 mg/kg oral once daily): 47%
- Sorbitol Accumulation, Nerve ([2]; 1 mg/kg oral once daily): 0%

Compound: Cc1cc(CC(=O)O)cc(Cc2nc3c(F)c(F)ccc3s2)c1 [23-ii), 3-[(4,5-difluorobenzothiazol-2-yl)methyl]-5-methylphenylacetic acid]
- mortality (Normal ICR mice): No animal died

Compound: O=C(O)Cc1cccc(Cc2nc3c(F)c(F)ccc3s2)c1Cl [Example 24-ii), 3-[(4,5-difluorobenzothiazol-2-yl)methyl]-2-chlorophenylacetic acid]
- Sorbitol Accumulation, Lens ([2]; 10 mg/kg oral once daily): 26%
- Sorbitol Accumulation, Nerve ([2]; 10 mg/kg oral once daily): 11%

Compound: O=C(O)CN(C(=O)CCc1nc2c(F)c(F)cc(F)c2s1)c1ccccc1 [Example 4-ii), N-[3-(4,5,7-trifluorobenzothiazol-2-yl)propionyl]-N-phenylglycine]
- Sorbitol Accumulation, Lens [1, 4]: 20%
- Sorbitol Accumulation, Nerve [1, 4]: 46%
- IC50 (Aldose reductase): 8.3 nM

Compound: O=C(O)Cc1cc(Cc2nc3c(F)c(F)cc(F)c3s2)cc(C(=O)O)c1 [Example 30-ii), 3-[(4,5,7-trifluorobenzothiazol-2-yl)methyl]-5-carboxymethylbenzoic acid]
- IC50 (Aldose reductase): 8.7 nM

Compound: O=C(O)Cc1cc(Br)cc(Cc2nc3c(F)c(F)cc(F)c3s2)c1 [Example 28-ii), 3-[(4,5,7-trifluorobenzothiazol-2-yl)methyl]-5-bromophenylacetic acid]
- IC50 (Aldose reductase): 9.4 nM

Compound: CN(C)c1cc(CC(=O)O)cc(Cc2nc3c(F)c(F)cc(F)c3s2)c1 [Example 31-ii), 3-[(4,5,7-trifluorobenzothiazol-2-yl)methyl]-5-dimethylaminophenylacetic acid]
- Sorbitol Accumulation, Lens ([2]; 3 mg/kg oral once daily): 77%
- Sorbitol Accumulation, Nerve ([2]; 3 mg/kg oral once daily): 1%
- IC50 (Aldose reductase): 6.7 nM

Compound: Cc1cc(CC(=O)O)cc(Cc2nc3c(F)c(F)cc(F)c3s2)c1 [Example 22-ii), 3-[(4,5,7-trifluorobenzothiazol-2-yl)methyl]-5-methylphenylacetic acid]
- Sorbitol Accumulation, Lens ([2]; 3 mg/kg oral once daily): 25%
- Sorbitol Accumulation, Nerve ([2]; 3 mg/kg oral once daily): 2%
- Sorbitol Accumulation, Lens [1, 3]: 41%
- Sorbitol Accumulation, Nerve [1, 3]: 0%
- IC50 (Aldose reductase): 9.6 nM

Reference: patent publication US5700819A, “2-substituted benzothiazole derivatives and prophylactic and therapeutic agents for the treatment of diabetic complications” (Grelan Pharmaceutical Co., Ltd., priority 1994, dated 1997)
